# Data taken from patent US20100190794A1, “Herbicidally Active Composition” (BASF SE, priority 2007, published 2010).
# What was measured:
# [1] = test system: BRAPL; assay: greenhouse test, pre-emergence treatment; assay type: in vivo, Brachiaria plantaginea; conditions: 250 g/ha a.s.
# Source text: (§1) The culture containers used were plastic pots containing loamy sand with approximately 3.0% of humus as substrate. The seeds of the test plants were sown separately for each species.
# (§2) For the pre-emergence treatment, the active compounds, suspended or emulsified in water, were applied directly after sowing by means of finely distributing nozzles. The containers were irrigated gently to promote germination and growth and subsequently covered with transparent plastic hoods until the plants had rooted. This cover caused uniform germination of the test plants unless this was adversely affected by the active compounds.
# (§3) Depending on the species, the plants were kept at 10-25° C. and 20-35° C., respectively. The test period extended over 2 to 4 weeks. During this time, the plants were tended and their response to the individual treatments was evaluated.
# (§4) Evaluation was carried out using a scale from 0 to 100. 100 means no emergence of the plants, or complete destruction of at least the above-ground parts, and 0 means no damage or normal course of growth. Good herbicidal activity is given at values of at least 70, and very good herbicidal activity is given at values of at least 85.
# (§5) The respective stated components A and B, and if appropriate, C were formulated as a 5% by weight or 10% by weight strength emulsion concentrate or a commercially available formulation of component B was used and, with addition of the amount of solvent system, introduced into the spray liquor used for applying the active compound. In the examples, the solvent used was water.
# (§6) The test period extended over 20 or 21 days. During this time, the plants were tended, and their reactions to the treatment with active compound was monitored.
# (§7) What was evaluated was the damage by the chemical compositions using a scale of from 0 to 100%, in comparison to the untreated control plants. 0 means no damage, and 100 means complete destruction of the plants.
# (§8) In the examples below, using the method of S. R. Colby (1967) “Calculating synergistic and antagonistic responses of herbicide combinations”, Weeds 15, p. 22 ff., the value E, which is expected if the activity of the individual active compounds is only additive, was calculated.
# (§9) where X=percent activity using active compound A at an application rate a; Y=percent activity using active compound B at an application rate b; E=expected activity (in %) by A+B at application rates a+b.
# (§10) If the value found in experiments is higher than the value E calculated according to Colby, a synergistic effect is present.
# [2] = test system: DIGSA; assay: greenhouse test, pre-emergence treatment; assay type: in vivo, Digitaria sanguinalis; conditions: for Herbicidal action in % after 21 days against DIGSA: Use Example 9
# Source text: as §1, §2, §3, §4, §5, §6, §7, §8, §9, §10
# [3] = test system: AVEFA; assay: greenhouse test, pre-emergence treatment; assay type: in vivo, Avena fatua; conditions: Use Example 6
# Source text: as §1, §2, §3
# as §4, with “85. […]” for “85.”
# as §6
# (§11) What was evaluated was the damage by the chemical compositions using a scale of from 0 to 100%, in comparison to the untreated control plants. […]
# (§12) In the examples below, using the method of S. R. Colby (1967) “Calculating synergistic and antagonistic responses of herbicide combinations”, Weeds 15, p. 22 ff., the value E, which is expected if the activity of the individual active compounds is only additive, was calculated. […]
# as §10
# [4] = test system: POAAN; assay: greenhouse test, pre-emergence treatment; assay type: in vivo, Poa annua
# Source text: as §1, §2, §3, §4, §5, §6, §7, §8, §9, §10
# [5] = test system: SETLU; assay: greenhouse test, pre-emergence treatment; assay type: in vivo, Setaria glauca; conditions: for Herbicidal action in % after 21 days against SETLU: Use Example 9
# Source text: as §1, §2, §3, §4, §5, §6, §7, §8, §9, §10
# [6] = test system: SETVI; assay: greenhouse test, pre-emergence treatment; assay type: in vivo, Setaria viridis; conditions: 125 g/ha a.s., Use Example 11
# Source text: as §1, §2
# Depending on the species, the plants were kept at 10-25° C. and 20-35° C., respectively. […] During this time, the plants were tended and their response to the individual treatments was evaluated. […]
# as §6, §11, §12
# [7] = test system: LAMPU; assay: greenhouse test, pre-emergence treatment; assay type: in vivo, Lamium purpureum; conditions: 125 g/ha a.s., Use Example 11
# Source text: as §1, §2, §3, §4, §5, §6, §7, §8, §9, §10
# [8] = test system: SETFA; assay: greenhouse test, pre-emergence treatment; assay type: in vivo, Setaria faberi
# Source text: as §1, §2, §3, §4, §5, §6, §7, §8, §9, §10
# [9] = test system: ALOMY; assay: greenhouse test, post-emergence treatment; assay type: in vivo, Alopecurus myosuroides; conditions: Use Example 17
# Protocol: as §1
# (§13) For the post-emergence treatment, the test plants were grown to a plant height of from 3 to 15 cm, depending on the plant habit, and only then treated with the active compounds which had been suspended or emulsified in water. To this end, the test plants were either sown directly and grown in the same containers, or they were first grown separately as seedlings and transplanted into the test containers a few days prior to treatment.
# as §3, §4, §5, §6, §7, §8, §9, §10
# [10] = test system: LOLMU; assay: greenhouse test, post-emergence treatment; assay type: in vivo, Lolium multiflorum; conditions: Use Example 17
# Protocol: as §1, §13, §3, §4, §5, §6, §7, §8, §9, §10
# [11] = test system: SETVI; assay: greenhouse test, post-emergence treatment; assay type: in vivo, Setaria viridis
# Protocol: as §1, §13, §3, §4, §5, §6, §7, §8, §9, §10
# [12] = test system: DIGSA; assay: greenhouse test, post-emergence treatment; assay type: in vivo, Digitaria sanguinalis; conditions: Use Example 18
# Protocol: as §1, §13, §3
# as §4, with “85. […]” for “85.”
# as §6, §11, §12, §10
structure (smiles),measurement,setting,value
"CN1C(=O)C(C)(Cc2ccccc2)N(C)C(=O)C1=Cc1ccccc1C#N (stereo not drawn) [Example 20, 2-[5-Benzyl-1,4,5-trimethyl-3,6-dioxopiperazin-2-ylidenemethyl]benzo-nitrile]",Herbicidal action in % after 20 days against BRAPL,[1]; Use Example 5,85%
same,Herbicidal action in % after 21 days against BRAPL,[1]; Use Example 9,95%
same,Herbicidal action in % after 20 days against BRAPL,[1]; Use Example 12,55%
same,Herbicidal action in % after 20 days against BRAPL,[1]; Use Example 16,85%
same,Herbicidal action in % after 20 days against DIGSA,"[2]; 125 g/ha a.s., Use Example 5",90%
same,Herbicidal action in % after 21 days against DIGSA,[2]; 125 g/ha a.s.,90%
same,Herbicidal action in % after 20 days against DIGSA,"[2]; 125 g/ha a.s., Use Example 14",90%
same,Herbicidal action in % after 20 days against DIGSA,"[2]; 250 g/ha a.s., Use Example 5",100%
same,Herbicidal action in % after 21 days against DIGSA,[2]; 250 g/ha a.s.,100%
same,Herbicidal action in % after 20 days against AVEFA,[3]; 250 g/ha a.s.,20%
same,Herbicidal action in % after 20 days against AVEFA,[3]; 500 g/ha a.s.,40%
same,Herbicidal action in % after 20 days against POAAN,"[4]; 125 g/ha a.s., Use Example 7",60%
same,Herbicidal action in % after 20 days against POAAN,"[4]; 125 g/ha a.s., Use Example 15",60%
same,Herbicidal action in % after 20 days against POAAN,"[4]; 250 g/ha a.s., Use Example 6",85%
same,Herbicidal action in % after 20 days against POAAN,"[4]; 250 g/ha a.s., Use Example 7",85%
same,Herbicidal action in % after 20 days against POAAN,"[4]; 250 g/ha a.s., Use Example 15",85%
same,Herbicidal action in % after 20 days against POAAN,"[4]; 500 g/ha a.s., Use Example 6",95%
same,Herbicidal action in % after 21 days against SETLU,[5]; 125 g/ha a.s.,90%
same,Herbicidal action in % after 20 days against SETLU,"[5]; 125 g/ha a.s., Use Example 14",90%
same,Herbicidal action in % after 21 days against SETLU,[5]; 250 g/ha a.s.,100%
same,Herbicidal action in % after 20 days against SETLU,"[5]; 250 g/ha a.s., Use Example 16",98%
same,Herbicidal action in % after 21 days against SETVI,[6],80%
same,Herbicidal action in % after 21 days against LAMPU,[7],75%
same,Herbicidal action in % after 20 days against SETFA,"[8]; 125 g/ha a.s., Use Example 12",45%
same,Herbicidal action in % after 20 days against SETFA,"[8]; 125 g/ha a.s., Use Example 14",95%
same,Herbicidal action in % after 20 days against SETFA,"[8]; 250 g/ha a.s., Use Example 12",80%
same,Herbicidal action in % after 20 days against ALOMY,[9]; 125 g/ha a.s.,40%
same,Herbicidal action in % after 20 days against ALOMY,[9]; 250 g/ha a.s.,70%
same,Herbicidal action in % after 20 days against LOLMU,[10]; 125 g/ha a.s.,15%
same,Herbicidal action in % after 20 days against LOLMU,[10]; 250 g/ha a.s.,35%
same,Herbicidal action in % after 20 days against SETVI,"[11]; 62.5 g/ha a.s., Use Example 18",60%
same,Herbicidal action in % after 20 days against SETVI,"[11]; 125 g/ha a.s., Use Example 17",70%
same,Herbicidal action in % after 20 days against SETVI,"[11]; 125 g/ha a.s., Use Example 18",70%
same,Herbicidal action in % after 20 days against SETVI,"[11]; 250 g/ha a.s., Use Example 17",80%
same,Herbicidal action in % after 20 days against DIGSA,[12]; 62.5 g/ha a.s.,45%
same,Herbicidal action in % after 20 days against DIGSA,[12]; 125 g/ha a.s.,70%
